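Cultured in 96-well plates, cells were exposed to test compound for 48 hours across five concentrations. Definition used: TGI = concentration required for complete inhibition of growth.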
Legend:
Assay in all cases: DTP human tumour cell line panel, 48 h
A549 NSCLC = test system: A549 NSCLC
EKVX NSCLC = test system: EKVX NSCLC
HL-60(TB) leukemia = test system: HL-60(TB) leukemia
K-562 leukemia = test system: K-562 leukemia
MOLT-4 leukemia = test system: MOLT-4 leukemia
NCI-H23 lung = test system: NCI-H23 lung
NCI-H460 lung = test system: NCI-H460 lung
SF-268 CNS = test system: SF-268 CNS
SF-539 CNS = test system: SF-539 CNS
SK-MEL-2 melanoma = test system: SK-MEL-2 melanoma
SK-MEL-28 melanoma = test system: SK-MEL-28 melanoma
SN12C renal = test system: SN12C renal
SR leukemia = test system: SR leukemia
CAKI-1 renal = test system: CAKI-1 renal
HCT-15 colon = test system: HCT-15 colon
HS 578T breast = test system: HS 578T breast
MDA-MB-435 = test system: MDA-MB-435
NCI-H226 lung = test system: NCI-H226 lung
PC-3 prostate = test system: PC-3 prostate
NCI/ADR-RES ovarian = test system: NCI/ADR-RES ovarian

Compound	TGI (A549 NSCLC) [µM]	TGI (EKVX NSCLC) [µM]	TGI (HL-60(TB) leukemia) [µM]	TGI (K-562 leukemia) [µM]	TGI (MOLT-4 leukemia) [µM]	TGI (NCI-H23 lung) [µM]	TGI (NCI-H460 lung) [µM]	TGI (SF-268 CNS) [µM]	TGI (SF-539 CNS) [µM]	TGI (SK-MEL-2 melanoma) [µM]	TGI (SK-MEL-28 melanoma) [µM]	TGI (SN12C renal) [µM]	TGI (SR leukemia) [µM]	TGI (CAKI-1 renal) [µM]	TGI (HCT-15 colon) [µM]	TGI (HS 578T breast) [µM]	TGI (MDA-MB-435) [µM]	TGI (NCI-H226 lung) [µM]	TGI (PC-3 prostate) [µM]	TGI (NCI/ADR-RES ovarian) [µM]
CN1Cc2cc3c(cc2-c2ccccc21)OCO3	> 100	> 100	> 100	> 100	> 100	> 100	> 100	> 100	> 100	> 100	> 100	> 100	> 100							
COC(=O)c1c2c(cc3c1CC1(Cc4cc5c(cc4C1=O)CCC5)C3)CCC2 (centres undefined)	> 100	> 100	> 100	> 100	> 100	> 100	> 100	> 100	> 100	> 100	> 100	> 100		> 100	> 100	> 100	> 100	> 100	> 100	
CCCCCCCC(=O)OCC1OC(OC)C(NC(=O)N(CCCl)N=O)C(O)C1O (centres undefined)	> 72.3	> 83.9	22.3	> 58	36.1	29.4	> 39.2		16.5	> 57.2	> 100	26.6	23.9	32.6	15.5			42.1		
O=C(COC(=O)c1cccc2c(=O)c3ccccc3[nH]c12)Nc1ccccc1	> 100	> 100	36.1	> 100	43.8	58.9	> 100	> 100	> 100		> 100	> 100	54.3	> 100				> 100		
CN(Cc1ccccc1)C(=NC#N)N(C)Cc1ccccc1	> 100	> 100				> 100	> 100	> 100	> 100	> 100	> 100	> 100		> 100	> 100					
Cc1nn(C)cc1P(=S)(c1ccccc1)c1ccccc1	> 100	> 100	41.7	> 100	> 100	> 100	> 100	> 100	> 100	> 100	> 100	> 100	> 100	> 100	> 100					
CC(C)N1CN(C(C(=O)N[C@@H]2C(=O)N3C2SC(C)(C)C3C(=O)O)c2ccc(O)cc2)CSC1=S (some centres undefined)		> 100	> 100	> 100	> 100	> 100	> 100	> 100	> 100	> 100	> 100	> 100		> 100	> 100					
N#CCC(=O)N/N=C(\C(=O)Nc1ccc(Cl)c(Cl)c1)C1CN(c2ccccc2)N=C1N (centres undefined)	> 100	> 100	> 100	> 100	> 100	> 100	> 100	> 100	> 100	> 100	> 100	> 100	> 100		> 100			> 100		
COc1cccc(Cc2cc(=O)c3ccc(C)nc3[nH]2)c1	> 100	> 100	> 100	> 100	> 100	> 100	> 100	> 100		> 100	> 100	> 100	> 100	> 100	> 100	> 100	> 100	> 100		> 100
Clc1cc2n[se]nc2cc1Cl	> 100	> 100	> 100	> 100	> 100	> 100	> 100	> 100	> 100	> 100	> 100	> 100	> 100	> 100	> 100					
O=C1C2CN(Cc3ccccc3)CC1CN(CC1CC1)C2	> 100	> 100	> 100	> 100	> 100	> 100	> 100	> 100	> 100	> 100	> 100	> 100		> 100	> 100			> 100		
CCOc1ccc(NC(=O)C2=C(C)NC(C)=C(C(=O)Nc3ccc(OCC)cc3)C2c2ccccc2)cc1	> 100	> 100	96.9	> 100	> 100	> 100	> 100	> 100	> 100	> 100	> 100	> 100		> 100				> 100		
COc1cc(/C=C2\C(=O)N(C(=O)c3ccc(NC(C)=O)cc3)N=C2C)ccc1O	> 100	> 100	> 100	> 100	> 100	> 100	> 100	> 100	> 100		> 100	> 100	> 100	> 100				> 100		
NCCN1C(=O)C2C3c4ccccc4C(c4ccccc43)C2C1=O (centres undefined)	> 100	> 100	> 100	> 100	> 100	> 100	> 100	> 100	> 100	> 100	> 100	> 100		> 100	> 100			> 100		
Cc1nn(-c2nc3ccccc3s2)c2c1C(=O)c1ccccc1-2	> 100	> 100	> 100	> 100		> 100	> 100	> 100	> 100	> 100	> 100	> 100	> 100		> 100					
O=[N+]([O-])c1c(C=Nc2ccccc2)oc(-c2ccc3c(c2)OCO3)c1-c1ccc2c(c1)OCO2	> 100		> 100	> 100	> 100	> 100	> 100	> 100	> 100		> 100	> 100	> 100	> 100	> 100			> 100		
Cc1ccc2c(=O)cc(-c3ccsc3)[nH]c2n1	> 44.7	> 100	20.2	> 100	> 30.7	> 25.2	> 100	> 100	33.2	> 30.6	> 100	> 86.2		> 100	> 62.9	26.2		56.8	> 61.9	> 20.5
CCOC(=O)c1ccc(Nc2nc3ccccc3nc2C(=O)OCC)cc1	> 100	> 100	> 100	> 100	> 100	> 100	> 100	> 100	> 100	> 100	> 100	> 100	> 100	> 100	> 100	> 100	> 100			> 100
COc1c(C)cc2c(c1O)C1NC(C2)[C@H](O)N2C3COC(=O)[C@@]4(CS[C@@H](c5c(OC(C)=O)c(C)c6c(c53)OCO6)C12)NCCC1=C4NC2C=CC=CC12 (some centres undefined)	< 0.01	0.0306	< 0.01	0.0202	< 0.01	< 0.01		0.0304		< 0.01	< 0.01	0.0365			0.113			< 0.01		
CCOC(=O)C1=CC(C)(C(=O)OCC)Nc2c(nc(OC)[nH]c2=O)N1 (centres undefined)	> 10	> 10		> 10	> 10	> 10	> 10	> 10	> 10	> 10	> 10	> 10		> 10	> 10	> 10		> 10	> 10	> 10
O=S(=O)(c1ccccc1)C1(CCC2OCCO2)C=CC2(CC1)OCCO2 (centres undefined)	> 100	> 100	> 100	> 100	> 100	> 100	> 100	> 100			> 100	> 100	> 100		> 100		> 100	> 100		> 100
CCOP(=O)(OCC)C(C(=O)OC)C(=O)C(=O)Nc1c(C)cc(Br)cc1C (centres undefined)	> 100	> 100	> 100	> 100	> 100	> 100	> 100	> 100	> 100	> 100	> 100	> 100		> 100	> 100			> 100		
COc1ccc(C=C(c2ccc(OCc3ccccc3)cc2)c2ccc(OCc3ccccc3)cc2)cc1	> 100	> 100	> 100			> 100	> 100	> 100	> 100	> 100	> 100	> 100	> 100	> 100	> 100			> 100		
Cc1ccc(-c2nc(-c3cnccn3)n(C3OC(CO)C(O)C(O)C3O)n2)cc1 (centres undefined)	> 100	> 100	> 100	> 100	> 100	> 100	> 100	> 100	> 100		> 100	> 100	> 100		> 100		> 100		> 100	> 100
COc1ccc2[nH]cc(CCNC(=O)[C@](O)(Cc3cn(C)c4ccccc34)[C@@]3(O)OCC(O)C3O)c2c1 (some centres undefined)	> 100	> 100	> 100	> 100	> 100	> 100	> 100	> 100	> 100	> 100	> 100	> 100	> 100	> 100	> 100			> 100		
COc1cc(/C=C\c2cccnc2)cc(OC)c1OC	> 100	> 100	48	> 100	43.1	> 100	> 100	> 100	> 100		> 100	> 100		> 100	> 100			> 100		
NCCC(=O)N[C@@H](Cc1cc(O)c(O)c(SCC(NC(=O)CC[C@H](N)C(=O)O)C(=O)NCC(=O)O)c1)C(=O)O (some centres undefined)	> 50	> 50		> 50	> 50	> 50	> 50	> 50		> 50	> 50	> 50		> 50	> 50		> 50	> 50	> 50	> 50
C[Si](C)(OCCS(=O)(=O)O)OC(=C1S(=O)(=O)OCCOS1(=O)=O)c1cccc2ccccc12	> 100	> 100	36.9	> 100	> 100	> 100	> 100	> 100	> 100	> 100	> 100	> 100	> 100	> 100	> 100		> 100	> 100	> 100	> 100
CC(C)(C)OC(=O)C1CC[C@@H](CC(=O)Oc2ccc([N+](=O)[O-])cc2)N1 (some centres undefined)	> 100	> 100	> 100		> 100	> 100	> 100		> 100	> 100	> 100	> 100	> 100	> 100	> 100		> 100	> 100	> 100	> 100
